Laboratory results published in patent US6949556B2, “Acylated 1,2,3,4-tetrahydronaphthyl amines and their use as pharmaceutical agents” (Aventis Pharma Deutschland GmbH, priority 2001, dated 2005).

Molecular target: eNOS promoter
Test: Activation of eNOS transcription (eNOS promoter firefly luciferase reporter)
Format: cell-based
Details: EC50 of transcription induction ratio (TIR) vs compound concentration, determined graphically; stably transfected human endothelial cell line, 18 h incubation
Experimental: Activation of eNOS transcription was measured as described in detail in Li et al. “Activation of protein kinase C alpha and/or epsilon enhances transcription of the human endothelial nitric oxide synthase gene”, Mol. Pharmacol. 1998; 53: 630-637. Briefly, a 3.5 kB long fragment 5′ of the starting codon of the eNOS gene was cloned, sequenced and cloned in firefly luciferase expression plasmids to monitor activation of the eNOS promoter by reporter gene activity. A human endothelial cell line stable transfected and expressing this promoter-reporter construct was used for compound testing. Cells were incubated for 18 h with compounds.
All compounds were dissolved in sterile DMSO. A final concentration of 0.5% DMSO in complete medium was allowed. Induction of reporter gene expression in these cells was measured using a standard luciferase assay system (Promega, Cat. No E150) according to the manufacturer's instructions. Luciferase induction in cells incubated with compounds were compared to those incubated with solvent alone. The ratio of both activities (transcription induction ratio, TIR) was plotted as a function of compound concentration. Typically, TIR values started at low concentrations at a ratio of 1, indicating no compound effect, and extended up to a maximum TIR value TIR(max) which indicates the increase of the eNOS transcription. EC50 values of transcription induction ratios as a function of compound concentration were determined graphically.

SMILES | EC50
Cc1c(C(=O)N[C@H]2CCc3ccccc3C2)cnn1-c1ccccc1 [Compound 32, 5-Methyl-1-phenyl-1H-pyrazole-4-carboxylic acid N-(S)-(1,2,3,4-tetrahydro-naphthalen-2-yl)-amide] | 1.13 µM
O=C(N[C@@H]1CCc2ccccc2C1)c1cnn(-c2ccc(Cl)cc2)c1C(F)(F)F [Compound 33, 1-(4-Chloro-phenyl)-5-trifluoromethyl-1H-pyrazole-4-carboxylic acid N-(R)-(1,2,3,4-tetrahydro-naphthalen-2-yl)-amide] | 7 µM
O=C(N[C@H]1CCc2ccccc2C1)c1cnn(-c2ccc(Cl)cc2)c1C(F)(F)F [Compound 34, 1-(4-Chloro-phenyl)-5-trifluoromethyl-1H-pyrazole-4-carboxylic acid N-(S)-(1,2,3,4-tetrahydro-naphthalen-2-yl)-amide] | 9.97 µM
Cc1cnc(C(=O)N[C@@H]2CCc3ccccc3C2)cn1 [Compound 35, 5-Methyl-pyrazine-2-carboxylic acid N-(R)-(1,2,3,4-tetrahydro-naphthalen-2-yl)-amide] | 14.9 µM
Cc1cnc(C(=O)N[C@H]2CCc3ccccc3C2)cn1 [Compound 36, 5-Methyl-pyrazine-2-carboxylic acid N-(S)-(1,2,3,4-tetrahydro-naphthalen-2-yl)-amide] | 0.33 µM
Cc1ccc(C(=O)N[C@@H]2CCc3ccccc3C2)c(Cl)n1 [Compound 39, 2-Chloro-6-methyl-N-(R)-1,2,3,4-tetrahydro-naphthalen-2-yl-nicotinamide] | 28.3 µM
Cc1ccc(C(=O)N[C@H]2CCc3ccccc3C2)c(Cl)n1 [Compound 40, 2-Chloro-6-methyl-N-(S)-1,2,3,4-tetrahydro-naphthalen-2-yl-nicotinamide] | 13.6 µM
Cc1nc(-c2ccccc2)sc1C(=O)N[C@@H]1CCc2ccccc2C1 [Compound 41, 4-Methyl-2-phenyl-thiazole-5-carboxylic acid N-(R)-(1,2,3,4-tetrahydro-naphthalen-2-yl)-amide] | 20.4 µM
Cc1nc(-c2ccccc2)sc1C(=O)N[C@H]1CCc2ccccc2C1 [Compound 42] | 16 µM
Cc1cc(C)c(C(=O)N[C@@H]2CCc3ccccc3C2)c(N)n1 [Compound 43, 2-Amino-4,6-dimethyl-N-(R)-1,2,3,4-tetrahydro-naphthalen-2-yl-nicotinamide] | 20.6 µM
Cc1nc(C(F)(F)F)c(C(=O)N[C@@H]2CCc3ccccc3C2)s1 [Compound 45, 2-Methyl-4-trifluoromethyl-thiazole-5-carboxylic acid N-(R)-(1,2,3,4-tetrahydro-naphthalen-2-yl)-amide] | 0.29 µM
Cc1nc(C(F)(F)F)c(C(=O)N[C@H]2CCc3ccccc3C2)s1 [Compound 46, 2-Methyl-4-trifluoromethyl-thiazole-5-carboxylic acid-N-(S)-(1,2,3,4-tetrahydro-naphthalen-2-yl)-amide] | 0.41 µM
O=C(N[C@@H]1CCc2ccccc2C1)c1cc2sccc2nc1C(F)(F)F [Compound 47, 5-Trifluoromethyl-thieno[3,2-b]pyridine-6-carboxylic acid-N-(R)-(1,2,3,4-tetrahydro-naphthalen-2-yl)-amide] | 35.2 µM
O=C(N[C@@H]1CCc2ccccc2C1)c1ccc2cc[nH]c2c1 [Compound 48, 1H-Indole-6-carboxylic acid N-(R)-(1,2,3,4-tetrahydro-naphthalen-2-yl)-amide] | 15.6 µM
O=C(N[C@@H]1CCc2ccccc2C1)c1ccc(C(F)(F)F)nc1 [Compound 50, N-(R)-1,2,3,4-Tetrahydro-naphthalen-2-yl-6-trifluoromethyl-nicotinamide] | 24.6 µM
O=C(N[C@H]1CCc2ccccc2C1)c1ccc(C(F)(F)F)nc1 [Compound 51, N-(S)-1,2,3,4-Tetrahydro-naphthalen-2-yl-6-trifluoromethyl-nicotinamide] | 1.6 µM
Cc1nc2cc(C(=O)N[C@@H]3CCc4ccccc4C3)ccc2[nH]1 [Compound 52, 2-Methyl-1H-benzoimidazole-5-carboxylic acid N-(R)-(1,2,3,4-tetrahydro-naphthalen-2-yl)-amide] | 24.4 µM
Cc1nc(C(F)(F)F)ccc1C(=O)N[C@@H]1CCc2ccccc2C1 [Compound 54, 2-Methyl-N-(R)-1,2,3,4-tetrahydro-naphthalen-2-yl-6-trifluoromethyl-nicotinamide] | 16.3 µM
Cc1nc(C(F)(F)F)ccc1C(=O)N[C@H]1CCc2ccccc2C1 [Compound 55, 2-Methyl-N-(S)-1,2,3,4-tetrahydro-naphthalen-2-yl-6-trifluoromethyl-nicotinamide] | 1.1 µM
N#Cc1ccc(C(=O)N[C@@H]2CCc3ccccc3C2)cn1 [Compound 56, 6-Cyano-N-(R)-1,2,3,4-tetrahydro-naphthalen-2-yl-nicotinamide] | 2.75 µM
N#Cc1ccc(C(=O)N[C@H]2CCc3ccccc3C2)cn1 [Compound 57, 6-Cyano-N-(S)-1,2,3,4-tetrahydro-naphthalen-2-yl-nicotinamide] | 0.5 µM
COc1ccc(-n2ncc(C(=O)N[C@@H]3CCc4ccccc4C3)c2C)cc1 [Compound 60, 1-(4-Methoxy-phenyl)-5-methyl-1H-pyrazole-4-carboxylic acid N-(R)-(1,2,3,4-tetrahydro-naphthalen-2-yl)-amide] | 4.12 µM
O=C(N[C@@H]1CCc2ccccc2C1)c1cncc(-c2cccs2)c1 [Compound 62, N-(R)-1,2,3,4-Tetrahydro-naphthalen-2-yl-5-thiophen-2-yl-nicotinamide] | 4.47 µM
O=C(N[C@H]1CCc2ccccc2C1)c1cncc(-c2cccs2)c1 [Compound 63, N-(S)-1,2,3,4-Tetrahydro-naphthalen-2-yl-5-thiophen-2-yl-nicotinamide] | 0.3 µM
O=C(N[C@@H]1CCc2ccccc2C1)c1onc2ccccc12 [Compound 64, Benzo[c]isoxazole-3-carboxylic acid N-(R)-(1,2,3,4-tetrahydro-naphthalen-2-yl)-amide] | 15.2 µM
CCCc1c(C(=O)N[C@@H]2CCc3ccccc3C2)cnn1-c1cc(Cl)cc(Cl)c1 [Compound 66, 1-(3,5-Dichloro-phenyl)-5-propyl-1H-pyrazole-4-carboxylic acid N-(R)-(1,2,3,4-tetrahydro-naphthalen-2-yl)-amide] | 5.86 µM
CCCc1c(C(=O)N[C@H]2CCc3ccccc3C2)cnn1-c1cc(Cl)cc(Cl)c1 [Compound 67, 1-(3,5-Dichloro-phenyl)-5-propyl-1H-pyrazole-4-carboxylic acid N-(S)-(1,2,3,4-tetrahydro-naphthalen-2-yl)-amide] | 23.5 µM
O=C(N[C@H]1CCc2ccccc2C1)c1ccncc1 [Compound 69, (S)-N-(1,2,3,4-Tetrahydro-naphthalen-2-yl)-isonicotinamide] | 0.19 µM
